Source: patent US7994185B2, “Benzene sulfonamide thiazole and oxazole compounds” (Glaxo Smith Kline LLC, priority 2008, dated 2011)
Where a name gives a salt, the structure may show the parent alone.

The compounds below were run against T1, BRAFV600E full-length (amino acids 2-766) (Homo sapiens, UniProt P15056, V600E) (assay: B-Raf Accelerated MEK ATPase assay (BRAMA)). Details: B-Raf Activity, Table 1a; highest pIC50 for the one or more runs, categorized.
T1 construct: His6-tagged BRAFV600E full-length (amino acids 2-766); His6; made in house; host or cells: baculovirus expression system (insect cells)
T1 sequence (P15056 2-766 V600E): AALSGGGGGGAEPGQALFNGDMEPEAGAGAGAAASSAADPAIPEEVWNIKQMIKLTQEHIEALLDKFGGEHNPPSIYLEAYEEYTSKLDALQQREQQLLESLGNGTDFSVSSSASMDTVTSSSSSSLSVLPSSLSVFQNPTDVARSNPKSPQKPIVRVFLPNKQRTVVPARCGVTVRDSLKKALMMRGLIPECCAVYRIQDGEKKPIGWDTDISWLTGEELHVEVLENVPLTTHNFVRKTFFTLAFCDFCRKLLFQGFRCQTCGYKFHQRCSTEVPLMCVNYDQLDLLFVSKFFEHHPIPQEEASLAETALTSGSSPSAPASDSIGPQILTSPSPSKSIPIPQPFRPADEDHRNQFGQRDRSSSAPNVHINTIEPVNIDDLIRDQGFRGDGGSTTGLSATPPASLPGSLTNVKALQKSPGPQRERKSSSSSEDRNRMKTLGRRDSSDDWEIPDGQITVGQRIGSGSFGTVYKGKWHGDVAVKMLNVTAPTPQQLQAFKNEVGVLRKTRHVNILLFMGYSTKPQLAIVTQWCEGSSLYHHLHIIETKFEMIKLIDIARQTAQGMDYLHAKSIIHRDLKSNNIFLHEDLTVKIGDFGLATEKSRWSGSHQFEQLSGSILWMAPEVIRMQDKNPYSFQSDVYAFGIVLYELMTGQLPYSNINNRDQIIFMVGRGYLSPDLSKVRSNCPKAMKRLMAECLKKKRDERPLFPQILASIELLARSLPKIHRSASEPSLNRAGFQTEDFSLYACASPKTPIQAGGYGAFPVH
Assay type: biochemical
Protocol: Compounds of the present invention were tested for B-Raf protein serine kinase inhibitory activity in a B-Raf Accelerated MEK ATPase assay (BRAMA). […] The BRAMA assay is a high sensitivity assay which measures an intrinsic MEK-mediated ATP hydrolysis uncoupled from downstream ERK phosphorylation by coupling the formation of ADP to NADH oxidation through the enzymes pyruvate kinase and lactate dehydrogenase. When ADP production is initiated by addition of catalytic amounts of an activated Raf enzyme and non-phosphorylated MEK, one observes robust ADP production concomitant with Raf-mediated phosphorylation of MEK. The method is disclosed in: C. Rominger, M. Schaber, E. May. Assay for B-Raf Activity Based on Intrinsic MEK ATPase Activity.
With CC(C)(C)c1nc(-c2ccc(F)c(NS(=O)(=O)c3c(F)cccc3F)c2)c(-c2ccnc(NCCS(C)(=O)=O)n2)s1 [Example 10, N-{5-[2-(1,1-Dimethylethyl)-5-(2-{[2-(methylsulfonyl)ethyl]amino}-4-pyrimidinyl)-1,3-thiazol-4-yl]-2-fluorophenyl}-2,6-difluorobenzenesulfonamide] the IC50 was < 100 nM.
CC(C)c1nc(-c2ccc(F)c(NS(=O)(=O)c3cccc(F)c3)c2)c(-c2ccnc(N)n2)s1 [Example 84, N-{5-[5-(2-Amino-4-pyrimidinyl)-2-(1-methylethyl)-1,3-thiazol-4-yl]-2-fluorophenyl}-3-fluorobenzenesulfonamide] showed an IC50 of 100 to 1000 nM.
With CC(C)c1nc(-c2cccc(NS(=O)(=O)c3cccc(F)c3)c2)c(-c2ccnc(NCC(N)=O)n2)s1 [Example 87, N^2-{4-[4-(3-{[(3-Fluorophenyl)sulfonyl]amino}phenyl)-2-(1-methylethyl)-1,3-thiazol-5-yl]-2-pyrimidinyl}glycinamide] the IC50 was < 100 nM.

Same assay, conditions: B-Raf pIC50, Table 1b; later runs, average pIC50 for the one or more runs, categorized
In the case of CC(C)(C)c1nc(-c2cccc(NS(=O)(=O)c3c(F)cccc3F)c2F)c(-c2ccnc(NC3CC3)n2)s1 [Example 294, N-{3-[5-[2-(cyclopropylamino)-4-pyrimidinyl]-2-(1,1-dimethylethyl)-1,3-thiazol-4-yl]-2-fluorophenyl}-2,6-difluorobenzenesulfonamide], the IC50 is reported as ≤ 3.16 nM.
In the case of O=S(=O)(Nc1cccc(-c2nc(C3CCOCC3)sc2-c2ccnc(NC3CCOCC3)n2)c1F)c1ccoc1 [Example 305, N-(2-fluoro-3-{2-(tetrahydro-2H-pyran-4-yl)-5-[2-(tetrahydro-2H-pyran-4-ylamino)-4-pyrimidinyl]-1,3-thiazol-4-yl}phenyl)-3-furansulfonamide], the IC50 is reported as ≤ 3.16 nM.
In the case of CS(=O)(=O)NCc1nccc(-c2sc(N3CCOCC3)nc2-c2cccc(NS(=O)(=O)c3cc(F)ccc3F)c2F)n1 [Example 273, 2,5-difluoro-N-{2-fluoro-3-[5-(2-{[(methylsulfonyl)amino]methyl}-4-pyrimidinyl)-2-(4-morpholinyl)-1,3-thiazol-4-yl]phenyl}benzenesulfonamide], the IC50 is reported as ≤ 3.16 nM.
In the case of CC(C)(C)c1nc(-c2cccc(NS(=O)(=O)c3c(F)cccc3F)c2F)c(-c2ccnc(NCCO)n2)s1 [Example 293, N-[3-(2-(1,1-dimethylethyl)-5-{2-[(2-hydroxyethyl)amino]-4-pyrimidinyl}-1,3-thiazol-4-yl)-2-fluorophenyl]-2,6-difluorobenzenesulfonamide], the IC50 is reported as ≤ 3.16 nM.
For CC(C)(C)c1nc(-c2cccc(NS(=O)(=O)c3c(F)cccc3F)c2F)c(-c2ccnc(N)n2)o1 [Example 296, N-{3-[5-(2-amino-4-pyrimidinyl)-2-(1,1-dimethylethyl)-1,3-oxazol-4-yl]-2-fluorophenyl}-2,6-difluorobenzenesulfonamide], the IC50 was ≤ 3.16 nM.
Compound CC(C)c1nc(-c2ccc(F)c(NS(=O)(=O)c3cccc(F)c3)c2)c(-c2ccnc(N)n2)s1 [Example 84, N-{5-[5-(2-Amino-4-pyrimidinyl)-2-(1-methylethyl)-1,3-thiazol-4-yl]-2-fluorophenyl}-3-fluorobenzenesulfonamide] has an IC50 of 31.6 to 1000 nM.
In the case of CC(C)(C)c1nc(-c2c(F)ccc(NS(=O)(=O)c3cc(F)ccc3F)c2F)c(-c2ccncn2)s1 [Example 260, N-{3-[2-(1,1-dimethylethyl)-5-(4-pyrimidinyl)-1,3-thiazol-4-yl]-2,4-difluorophenyl}-2,5-difluorobenzenesulfonamide], the IC50 is reported as ≤ 3.16 nM.
For CC1(c2nc(-c3cccc(NS(=O)(=O)c4ccoc4)c3F)c(-c3ccnc(N)n3)s2)CCNCC1 [Example 319, N-{3-[5-(2-amino-4-pyrimidinyl)-2-(4-methyl-4-piperidinyl)-1,3-thiazol-4-yl]-2-fluorophenyl}-3-furansulfonamide], the IC50 was ≤ 3.16 nM.
For CC(C)(N)c1nc(-c2cccc(NS(=O)(=O)c3ccoc3)c2F)c(-c2ccnc(N)n2)s1 [Example 312, N-{3-[2-(1-amino-1-methylethyl)-5-(2-amino-4-pyrimidinyl)-1,3-thiazol-4-yl]-2-fluorophenyl}-3-furansulfonamide], the IC50 was ≤ 3.16 nM.
In the case of Cc1nccc(-c2sc(C3(C)CCNCC3)nc2-c2cccc(NS(=O)(=O)c3ccoc3)c2F)n1 [Example 320, N-{2-fluoro-3-[2-(4-methyl-4-piperidinyl)-5-(2-methyl-4-pyrimidinyl)-1,3-thiazol-4-yl]phenyl}-3-furansulfonamide], the IC50 is reported as ≤ 3.16 nM.
CC(C)(C(N)=O)c1nc(-c2cccc(NS(=O)(=O)c3c(F)cccc3F)c2F)c(-c2ccnc(N)n2)s1 [Example 309, 2-[5-(2-Amino-4-pyrimidinyl)-4-(3-{[(2,6-difluorophenyl)sulfonyl]amino}-2-fluorophenyl)-1,3-thiazol-2-yl]-2-methylpropanamide] was tested, and the IC50 was ≤ 3.16 nM.
With C[C@@H](O)CNc1nccc(-c2sc(C3CCOCC3)nc2-c2cccc(NS(=O)(=O)c3ccoc3)c2F)n1 [Example 302, N-{2-fluoro-3-[5-(2-{[(2R)-2-hydroxypropyl]amino}-4-pyrimidinyl)-2-(tetrahydro-2H-pyran-4-yl)-1,3-thiazol-4-yl]phenyl}-3-furansulfonamide] the IC50 was ≤ 3.16 nM.
Cn1ccc(S(=O)(=O)Nc2cccc(-c3nc(C4CCOCC4)sc3-c3ccnc(N)n3)c2F)n1 [Example 289, N-{3-[5-(2-amino-4-pyrimidinyl)-2-(tetrahydro-2H-pyran-4-yl)-1,3-thiazol-4-yl]-2-fluorophenyl}-1-methyl-1H-pyrazole-3-sulfonamide hydrochloride] gave an IC50 of 31.6 to 1000 nM.
With CC(C)(C)c1nc(-c2cccc(NS(=O)(=O)c3ccco3)c2Cl)c(-c2ccncn2)s1 [Example 261, N-{2-chloro-3-[2-(1,1-dimethylethyl)-5-(4-pyrimidinyl)-1,3-thiazol-4-yl]phenyl}-2-furansulfonamide] the IC50 was ≤ 3.16 nM.
In the case of C[C@H](O)CNc1nccc(-c2sc(C3CCOCC3)nc2-c2cccc(NS(=O)(=O)c3ccoc3)c2F)n1 [Example 303, N-{2-fluoro-3-[5-(2-{[(2S)-2-hydroxypropyl]amino}-4-pyrimidinyl)-2-(tetrahydro-2H-pyran-4-yl)-1,3-thiazol-4-yl]phenyl}-3-furansulfonamide], the IC50 is reported as ≤ 3.16 nM.
Work on Cc1nccc(-c2sc(C(C)(C)N)nc2-c2cccc(NS(=O)(=O)c3c(F)cccc3F)c2F)n1 [Example 310, N-{3-[2-(1-amino-1-methylethyl)-5-(2-methyl-4-pyrimidinyl)-1,3-thiazol-4-yl]-2-fluorophenyl}-2,6-difluorobenzenesulfonamide] yielded an IC50 of 31.6 to 1000 nM.
With CC(C)(C)c1nc(-c2cccc(NS(=O)(=O)c3ccoc3)c2Cl)c(-c2ccncn2)s1 [Example 268, N-{2-chloro-3-[2-(1,1-dimethylethyl)-5-(4-pyrimidinyl)-1,3-thiazol-4-yl]phenyl}-3-furansulfonamide] the IC50 was ≤ 3.16 nM.
O=S(=O)(Nc1cccc(-c2nc(C3CCOCC3)sc2-c2ccnc(NCCN3CCOCC3)n2)c1F)c1ccoc1 [Example 307, N-{2-fluoro-3-[5-(2-{[2-(4-morpholinyl)ethyl]amino}-4-pyrimidinyl)-2-(tetrahydro-2H-pyran-4-yl)-1,3-thiazol-4-yl]phenyl}-3-furansulfonamide] was tested, and the IC50 was ≤ 3.16 nM.

Same assay, conditions: Table 1a; highest pIC50 for the one or more runs, categorized; read-out: B-Raf Activity
For CC(C)c1nc(-c2ccc(F)c(NS(=O)(=O)c3c(F)cccc3F)c2)c(-c2ccnc(NCCN3CCCC3)n2)s1 [Example 170], the IC50 was > 1000 nM.
With CC(C)c1nc(-c2ccc(F)c(NS(=O)(=O)c3c(F)cccc3F)c2)c(-c2ccnc(NCCCN(C)C)n2)s1 [Example 169] the IC50 was > 1000 nM.

Same assay, conditions: Table 1b; later runs, average pIC50 for the one or more runs, categorized; read-out: B-Raf pIC50 (converted)
With CC(C)(C)c1nc(-c2ccc(F)c(NS(=O)(=O)c3c(F)cccc3F)c2)c(-c2ccnc(NCCS(C)(=O)=O)n2)s1 [Example 10, N-{5-[2-(1,1-Dimethylethyl)-5-(2-{[2-(methylsulfonyl)ethyl]amino}-4-pyrimidinyl)-1,3-thiazol-4-yl]-2-fluorophenyl}-2,6-difluorobenzenesulfonamide] the IC50 was 3.16 to 31.6 nM.
For Cc1nccc(-c2sc(C3CCNCC3)nc2-c2cccc(NS(=O)(=O)c3c(F)cccc3F)c2F)n1 [Example 321, 2,6-difluoro-N-{2-fluoro-3-[5-(2-methyl-4-pyrimidinyl)-2-(4-piperidinyl)-1,3-thiazol-4-yl]phenyl}benzenesulfonamide], the IC50 was 3.16 to 31.6 nM.
CC(C)c1nc(-c2cccc(NS(=O)(=O)c3cccc(F)c3)c2)c(-c2ccnc(NCC(N)=O)n2)s1 [Example 87, N^2-{4-[4-(3-{[(3-Fluorophenyl)sulfonyl]amino}phenyl)-2-(1-methylethyl)-1,3-thiazol-5-yl]-2-pyrimidinyl}glycinamide] gave an IC50 of 3.16 to 31.6 nM.
For CC(C)(N)c1nc(-c2cccc(NS(=O)(=O)c3c(F)cccc3F)c2F)c(-c2ccnc(N)n2)s1 [Example 313, N-{3-[2-(1-amino-1-methylethyl)-5-(2-amino-4-pyrimidinyl)-1,3-thiazol-4-yl]-2-fluorophenyl}-2,6-difluorobenzenesulfonamide], the IC50 was 3.16 to 31.6 nM.
CC(C)C(=O)NCc1nccc(-c2sc(N3CCOCC3)nc2-c2cccc(NS(=O)(=O)c3cc(F)ccc3F)c2F)n1 [Example 275, N-({4-[4-(3-{[(2,5-difluorophenyl)sulfonyl]amino}-2-fluorophenyl)-2-(4-morpholinyl)-1,3-thiazol-5-yl]-2-pyrimidinyl}methyl)-2-methylpropanamide] was tested, and the IC50 was 3.16 to 31.6 nM.
With CCc1nc(-c2cccc(NS(=O)(=O)c3c(F)cccc3F)c2F)c(-c2ccnc(N)n2)s1 [Example 257, N-{3-[5-(2-amino-4-pyrimidinyl)-2-ethyl-1,3-thiazol-4-yl]-2-fluorophenyl}-2,6-difluorobenzenesulfonamide] the IC50 was 3.16 to 31.6 nM.
C=Cc1nccc(-c2sc(N3CCOCC3)nc2-c2cccc(NS(=O)(=O)c3cc(F)ccc3F)c2F)n1 [Example 277, N-{3-[5-(2-ethenyl-4-pyrimidinyl)-2-(4-morpholinyl)-1,3-thiazol-4-yl]-2-fluorophenyl}-2,5-difluorobenzenesulfonamide] was tested, and the IC50 was 3.16 to 31.6 nM.
For O=C(NCc1nccc(-c2sc(N3CCOCC3)nc2-c2cccc(NS(=O)(=O)c3cc(F)ccc3F)c2F)n1)C1CCCC1 [Example 274, N-({4-[4-(3-{[(2,5-difluorophenyl)sulfonyl]amino}-2-fluorophenyl)-2-(4-morpholinyl)-1,3-thiazol-5-yl]-2-pyrimidinyl}methyl)cyclopentanecarboxamide], the IC50 was 3.16 to 31.6 nM.
With Cc1nccc(-c2sc(C3CCNCC3)nc2-c2cccc(NS(=O)(=O)c3ccoc3)c2F)n1 [Example 323, N-{2-fluoro-3-[5-(2-methyl-4-pyrimidinyl)-2-(4-piperidinyl)-1,3-thiazol-4-yl]phenyl}-3-furansulfonamide] the IC50 was 3.16 to 31.6 nM.
